Measurements published in ChEMBL document CHEMBL1149928, “Stabilization of a prostaglandin tertiary allylic alcohol system by fluorine: synthesis, acid stability studies and pharmacology of a 16-fluoromethyl analog of SC-46275” (1992).

What was measured:
Canis familiaris = assay: Compound was evaluated for the gastric antisecretory activity in food stimulated Pavlov pouch dogs by intrapouch administration; format: functional; conditions: Canis lupus familiaris, Stomach
Rattus norvegicus = assay: Compound was evaluated for the diarrheal effects in adult male rats by intragastric administration; format: functional; conditions: po

Row | Structure (SMILES) | ED50 (Canis familiaris) | ED50 (Rattus norvegicus)
1 | COC(=O)CC/C=C\CC[C@H]1C(=O)C[C@@H](O)[C@@H]1/C=C/C[C@@](O)(/C=C/C1=CCCC1)CF | 0.05 µg/kg | > 3.16 mg/kg
2 | COC(=O)CC/C=C\CC[C@H]1C(=O)C[C@@H](O)[C@@H]1/C=C/C[C@@](C)(O)/C=C/C1=CCCC1 | 0.01 µg/kg | > 3.16 mg/kg
